According to patent publication EP4043444A1, “SUBSTITUTED ISOXAZOLINE DERIVATIVES” (priority 2021, dated 2022):

How the values were obtained:
Assay type in all cases: in vivo
[1] = test system: Tobacco Budworm (Heliothis virescens); experiment: Tobacco Budworm control, 96-well microtiter plates with insect diet and eggs; conditions: 2500ppm, sprayed onto insect diet, 5 days, in comparison with untreated controls; for mortality at 2500 ppm: Heliothis virescens, 120 h, read-out: mortality (Egg and larval mortality)
Method: For evaluating control of Tobacco Budworm, the test unit consisted of 96-well-microtiter plates containing an insect diet and 15-25 H. virescens eggs. The compounds were formulated using a solution containing 75% v/v water and 25% v/v DMSO. Different concentrations of formulated compounds were sprayed onto the insect diet at 10µl, using a custom-built micro atomizer, at two replications. After application, microtiter plates were incubated at about 28 + 1°C and about 80 + 5 % relative humidity for 5 days. Egg and larval mortality was then visually assessed.

[2] = test system: Boll weevil (Anthonomus grandis); experiment: Boll weevil control, 96-well microtiter plates with insect diet and eggs; conditions: for mortality at 2500 ppm: Anthonomus grandis, 120 h, read-out: mortality (Egg and larval mortality)
Method: For evaluating control of boll weevil, the test unit consisted of 96-well-microtiter plates containing an insect diet and 5-10 A. grandis eggs.
The compounds were formulated using a solution containing 75% v/v water and 25% v/v DMSO. Different concentrations of formulated compounds were sprayed onto the insect diet at 5µl, using a custom-built micro atomizer, at two replications.
After application, microtiter plates were incubated at about 25 + 1°C and about 75 + 5 % relative humidity for 5 days. Egg and larval mortality were then visually assessed.

[3] = test system: Green Peach Aphid (Myzus persicae) (mixed life stages); experiment: Green Peach Aphid control through systemic means, artificial diet under artificial membrane; conditions: for mortality at 2500 ppm: Myzus persicae, 72 h, read-out: mortality (Aphid mortality)
From the text: For evaluating control of Green Peach Aphid through systemic means the test unit consisted of 96-well-microtiter plates containing liquid artificial diet under an artificial membrane. The compounds were formulated using a solution containing 75% v/v water and 25% v/v DMSO. Different concentrations of formulated compounds were pipetted into the aphid diet, using a custom-built pipette, at two replications. After application, 5 - 8 adult aphids were placed on the artificial membrane inside the microtiter plate wells. The aphids were then allowed to suck on the treated aphid diet and incubated at about 23 + 1°C and about 50 + 5 % relative humidity for 3 days. Aphid mortality and fecundity was then visually assessed.

[4] = test system: Yellow Fever Mosquito (Aedes aegypti); experiment: whole plant or invertebrate; conditions: 48 h, 2 days, in comparison with untreated controls, read-out: mortality (Larval mortality)
Method: For evaluating control of Yellow Fever Mosquito the test unit consisted of 96-well-microtiter plates containing 200µl of tap water per well and 5-15 freshly hatched A. aegypti larvae. The active compounds were formulated using a solution containing 75% (v/v) water and 25% (v/v) DMSO. Different concentrations of formulated compounds or mixtures were sprayed onto the insect diet at 2.5µl, using a custom-built micro atomizer, at two replications.
After application, microtiter plates were incubated at 28 + 1°C, 80 + 5 % RH for 2 days. Larval mortality was then visually assessed.

In the case of “2-chloro-5-[[5-(3,5-dichloro-4-fluoro-phenyl)-5-(trifluoromethyl)-4H-isoxazol-3-yl]amino]-N-[1-(trifluoromethylsulfonyl)azetidin-3-yl]benzamide [I-99]”, the “mortality (Egg and larval mortality)” value [1] is reported as “at least 75%”, the “mortality (Egg and larval mortality)” value ([2]; 2500ppm, sprayed onto insect diet, 5 days, in comparison with untreated controls) is reported as “at least 75%” and the “mortality (Aphid mortality)” value ([3]; 2500 ppm, pipetted into aphid diet, 3 days, in comparison with untreated controls) is reported as “at least 75%”.
`O=C(Nc1ccc(F)cc1F)c1cc(NC2=NOC(c3cc(Cl)cc(Cl)c3)(C(F)(F)F)C2)ccc1Cl` (stereo not shown) [I-2] gave a mortality at 2500 ppm [1] of at least 75%, a mortality at 2500 ppm [2] of at least 75% and a mortality at 2500 ppm [4] of at least 75%. The mortality at 2500 ppm [3] was at least 75%.
`N#CC1(NC(=O)c2cc(NC3=NOC(c4cc(Cl)cc(Cl)c4)(C(F)(F)F)C3)ccc2Cl)CC1` (stereo not shown) [I-3] gave a mortality at 2500 ppm [1] of at least 75%, a mortality at 2500 ppm [2] of at least 75% and a mortality at 2500 ppm [4] of at least 75%. The mortality at 2500 ppm [3] was at least 75%.
For `O=C(Nc1ccc(F)c(NC(=O)C(F)F)c1F)c1cc(NC2=NOC(c3cc(Cl)cc(Cl)c3)(C(F)(F)F)C2)ccc1Cl` (stereo not shown) [I-5, 2-chloro-5-[[5-(3,5-dichlorophenyl)-5-(trifluoromethyl)-4H-isoxazol-3-yl]amino]-N-[3-[(2,2-difluoroacetyl)amino]-2,4-difluoro-phenyl]benzamide], the mortality at 2500 ppm [1] was at least 75%, the mortality at 2500 ppm [2] was at least 75% and the mortality at 2500 ppm [4] was at least 75%. For the same compound, the mortality at 2500 ppm [3] was at least 75%.
`CC(=O)Nc1c(F)ccc(NC(=O)c2cc(NC3=NOC(c4cc(Cl)cc(Cl)c4)(C(F)(F)F)C3)ccc2Cl)c1F` (stereo not shown) [I-6] showed a mortality at 2500 ppm [1] of at least 75%, a mortality at 2500 ppm [2] of at least 75% and a mortality at 2500 ppm [4] of at least 75%. It also gave a mortality at 2500 ppm [3] of at least 75%.
For `O=C(Nc1ccc(F)c(NC(=O)C(F)(F)Cl)c1F)c1cc(NC2=NOC(c3cc(Cl)cc(Cl)c3)(C(F)(F)F)C2)ccc1Cl` (stereo not shown) [I-7], the mortality at 2500 ppm [1] was at least 75%, the mortality at 2500 ppm [2] was at least 75% and the mortality at 2500 ppm [4] was at least 75%. For the same compound, the mortality at 2500 ppm [3] was at least 75%.
`O=C(Nc1ccc(F)c(NC(=O)C(F)(F)F)c1F)c1cc(NC2=NOC(c3cc(Cl)cc(Cl)c3)(C(F)(F)F)C2)ccc1Cl` (stereo not shown) [I-8] was tested, and the mortality at 2500 ppm [1] was at least 75%, the mortality at 2500 ppm [2] was at least 75% and the mortality at 2500 ppm [4] was at least 75%. The mortality at 2500 ppm [3] was at least 75%.
`O=C(CC(F)(F)F)Nc1c(F)ccc(NC(=O)c2cc(NC3=NOC(c4cc(Cl)cc(Cl)c4)(C(F)(F)F)C3)ccc2Cl)c1F` (stereo not shown) [I-9] showed a mortality at 2500 ppm [1] of at least 75%, a mortality at 2500 ppm [2] of at least 75% and a mortality at 2500 ppm [4] of at least 75%. For the same compound, the mortality at 2500 ppm [3] was at least 75%.
For `O=C(CC1CC1)Nc1c(F)ccc(NC(=O)c2cc(NC3=NOC(c4cc(Cl)cc(Cl)c4)(C(F)(F)F)C3)ccc2Cl)c1F` (stereo not shown) [I-10], the mortality at 2500 ppm [1] was at least 75%, the mortality at 2500 ppm [2] was at least 75% and the mortality at 2500 ppm [4] was at least 75%.
Compound `N#CC1(NC(=O)c2c(F)ccc(NC3=NOC(c4cc(Cl)cc(Cl)c4)(C(F)(F)F)C3)c2F)CC1` (stereo not shown) [I-11, N-(1-cyanocyclopropyl)-3-[[5-(3,5-dichlorophenyl)-5-(trifluoromethyl)-4H-isoxazol-3-yl]amino]-2,6-difluoro-benzamide] has a mortality at 2500 ppm [1] of at least 75% and a mortality at 2500 ppm [4] of at least 75%.
Work on `O=C(Nc1ccc(F)cc1F)c1cccc(NC2=NOC(c3cc(Cl)cc(Cl)c3)(C(F)(F)F)C2)c1F` (stereo not shown) [I-13, 3-[[5-(3,5-dichlorophenyl)-5-(trifluoromethyl)-4H-isoxazol-3-yl]amino]-N-(2,4-difluorophenyl)-2-fluoro-benzamide] yielded a mortality at 2500 ppm [1] of at least 75%, a mortality at 2500 ppm [2] of at least 75% and a mortality at 2500 ppm [4] of at least 75%. For the same compound, the mortality at 2500 ppm [3] was at least 75%.
`O=C(Nc1ccc(F)cc1F)c1cc(NC2=NOC(c3cc(Cl)c(F)c(Cl)c3)(C(F)(F)F)C2)ccc1Cl` (stereo not shown) [I-14] gave a mortality at 2500 ppm [1] of at least 75%, a mortality at 2500 ppm [2] of at least 75% and a mortality at 2500 ppm [4] of at least 75%. It also gave a mortality at 2500 ppm [3] of at least 75%.
For `O=C(Nc1ccc(F)cc1F)c1cc(NC2=NOC(c3ccc(F)c(C(F)(F)F)c3)(C(F)(F)F)C2)ccc1Cl` (stereo not shown) [I-16], the mortality at 2500 ppm [1] was at least 75%, the mortality at 2500 ppm [2] was at least 75% and the mortality at 2500 ppm [4] was at least 75%. The mortality at 2500 ppm [3] was at least 75%.
`N#CC1(NC(=O)c2cc(N(CC3CC3)C3=NOC(c4cc(Cl)cc(Cl)c4)(C(F)(F)F)C3)ccc2Cl)CC1` (stereo not shown) [I-25, 2-chloro-N-(1-cyanocyclopropyl)-5-[cyclopropylmethyl-[5-(3,5-dichlorophenyl)-5-(trifluoromethyl)-4H-isoxazol-3-yl]amino]benzamide] showed a mortality at 2500 ppm [1] of at least 75%, a mortality at 2500 ppm [2] of at least 75% and a mortality at 2500 ppm [4] of at least 75%.
With `CCOC(=O)N(C1=NOC(c2cc(Cl)cc(Cl)c2)(C(F)(F)F)C1)c1ccc(Cl)c(C(=O)NC2(C#N)CC2)c1` (stereo not shown) [I-28, ethyl N-[4-chloro-3-[(1-cyanocyclopropyl)carbamoyl]phenyl]-N-[5-(3,5-dichlorophenyl)-5-(trifluoromethyl)-4H-isoxazol-3-yl]carbamate] the mortality at 2500 ppm [1] was at least 75%, the mortality at 2500 ppm [2] was at least 75% and the mortality at 2500 ppm [4] was at least 75%.
`O=C(NCc1ccccn1)c1ccc(NC2=NOC(c3cc(Cl)cc(Cl)c3)(C(F)(F)F)C2)cc1Cl` (stereo not shown) [I-70] showed a mortality at 2500 ppm [1] of at least 75%, a mortality at 2500 ppm [2] of at least 75% and a mortality at 2500 ppm [4] of at least 75%.
For `CCN1OC[C@@H](NC(=O)c2ccc(NC3=NOC(c4cc(Cl)cc(Cl)c4)(C(F)(F)F)C3)cc2Cl)C1=O` (stereo partly shown) [I-71], the mortality at 2500 ppm [4] was at least 75%.
In the case of `CC(C)(C#N)NC(=O)c1cc(NC2=NOC(c3cc(Cl)c(F)c(Cl)c3)(C(F)(F)F)C2)ccc1Cl` (stereo not shown) [I-75, 2-chloro-N-(1-cyano-1-methyl-ethyl)-5-[[5-(3,5-dichloro-4-fluoro-phenyl)-5-(trifluoromethyl)-4H-isoxazol-3-yl]amino]benzamide], the mortality at 2500 ppm [1] is reported as at least 75% and the mortality at 2500 ppm [2] is reported as at least 75%.
`CCOC(=O)N(C1=NOC(c2cc(Cl)cc(Cl)c2)(C(F)(F)F)C1)c1ccc(Cl)c(C(=O)N(C(=O)OCC)C2(C#N)CC2)c1` (stereo not shown) [I-142, ethyl N-[4-chloro-3-[(1-cyanocyclopropyl)-ethoxycarbonyl-carbamoyl]-phenyl]-N-[5-(3,5-dichlorophenyl)-5-(trifluoromethyl)-4H-isoxazol-3-yl]carbamate] showed a mortality at 2500 ppm [1] of at least 75%, a mortality at 2500 ppm [2] of at least 75% and a mortality at 2500 ppm [4] of at least 75%.
`COc1ccc(NC2=NOC(c3cc(Cl)cc(Cl)c3)(C(F)(F)F)C2)cc1C(=O)NC1(C#N)CC1` (stereo not shown) [I-147] gave a mortality at 2500 ppm [2] of at least 75% and a mortality at 2500 ppm [4] of at least 75%.
In the case of `N#CC1(NC(=O)c2cc(NC3=NOC(c4cc(Cl)cc(Cl)c4)(C(F)(F)F)C3)ccc2OC(F)F)CC1` (stereo not shown) [I-148], the mortality at 2500 ppm [1] is reported as at least 75%, the mortality at 2500 ppm [2] is reported as at least 75% and the mortality at 2500 ppm [4] is reported as at least 75%.
For `N#CC1(NC(=O)c2cc(NC3=NOC(c4cc(Cl)cc(Cl)c4)(C(F)(F)F)C3)ccc2C(F)(F)F)CC1` (stereo not shown) [I-149], the mortality at 2500 ppm [1] was at least 75%, the mortality at 2500 ppm [2] was at least 75% and the mortality at 2500 ppm [4] was at least 75%.
For `O=C(Nc1ccc(F)cc1F)c1cc(NC2=NOC(c3cc(Cl)cc(Cl)c3)(C(F)(F)F)C2)ccc1OC(F)(F)F` (stereo not shown) [I-159], the mortality at 2500 ppm [1] was at least 75%, the mortality at 2500 ppm [2] was at least 75% and the mortality at 2500 ppm [4] was at least 75%.
For `COc1ccc(NC2=NOC(c3cc(Cl)cc(Cl)c3)(C(F)(F)F)C2)cc1C(=O)NC1CC1` (stereo not shown) [I-170], the mortality at 2500 ppm [1] was at least 75%, the mortality at 2500 ppm [2] was at least 75% and the mortality at 2500 ppm [4] was at least 75%.
For `N#Cc1c(NC2=NOC(c3cc(Cl)cc(Cl)c3)(C(F)(F)F)C2)cccc1C(=O)NC1CC1` (stereo not shown) [I-173], the mortality at 2500 ppm [1] was at least 75% and the mortality at 2500 ppm [4] was at least 75%.
For `Cc1ccc(NC2=NOC(c3cc(Cl)cc(Cl)c3)(C(F)(F)F)C2)cc1C(=O)NCC(F)(F)F` (stereo not shown) [I-176], the mortality at 2500 ppm [1] was at least 75%, the mortality at 2500 ppm [2] was at least 75% and the mortality at 2500 ppm [4] was at least 75%.
